Experimental data as given in PubChem BioAssay AID2060489 (Molecular Pharmacology Branch, DTP, NCI, 2025).

Test system: 922993-354-T-J3-PDC complex spheroids, viability
Test: Anticancer human tumor 922993-354-T-J3-PDC patient-derived endometrial carcinoma cell line growth inhibition [GQUAD]
Details: for IC50: curve of first compound; for viability, T/C: stronger effect = lower value
Outline: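 Multi-cell-type spheroids of tumor cells with HUVEC and mesenchymal stem cells, treated with drug combinations. Concentrations descend in half-log steps from near clinical Cmax, or from 10 microM where Cmax is unknown; viability read-out.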

[1] = second compound 0.0316 µM, first compound 0.0316 µM
[2] = second compound 0.0316 µM, first compound 0.1 µM
[3] = second compound 0.0316 µM, first compound 0.316 µM
[4] = second compound 0.0316 µM, first compound 1 µM
[5] = second compound 0.0316 µM, first compound 3.16 µM
[6] = second compound 0.0316 µM, first compound 10 µM
[7] = second compound 0.1 µM, first compound 0.0316 µM
[8] = second compound 0.1 µM, first compound 0.1 µM
[9] = second compound 0.1 µM, first compound 0.316 µM
[10] = second compound 0.1 µM, first compound 1 µM
[11] = second compound 0.1 µM, first compound 3.16 µM
[12] = second compound 0.1 µM, first compound 10 µM
[13] = second compound 0.316 µM, first compound 0.0316 µM
[14] = second compound 0.316 µM, first compound 0.1 µM
[15] = second compound 0.316 µM, first compound 0.316 µM
[16] = second compound 0.316 µM, first compound 1 µM
[17] = second compound 0.316 µM, first compound 3.16 µM
[18] = second compound 0.316 µM, first compound 10 µM
[19] = second compound 1 µM, first compound 0.0316 µM
[20] = second compound 1 µM, first compound 0.1 µM
[21] = second compound 1 µM, first compound 0.316 µM
[22] = second compound 1 µM, first compound 1 µM
[23] = second compound 1 µM, first compound 3.16 µM
[24] = second compound 1 µM, first compound 10 µM
[25] = second compound 3.16 µM, first compound 0.0316 µM
[26] = second compound 3.16 µM, first compound 0.1 µM
[27] = second compound 3.16 µM, first compound 0.316 µM
[28] = second compound 3.16 µM, first compound 1 µM
[29] = second compound 3.16 µM, first compound 3.16 µM
[30] = second compound 3.16 µM, first compound 10 µM
[31] = second compound 10 µM, first compound 0.0316 µM
[32] = second compound 10 µM, first compound 0.1 µM
[33] = second compound 10 µM, first compound 0.316 µM
[34] = second compound 10 µM, first compound 1 µM
[35] = second compound 10 µM, first compound 3.16 µM
[36] = second compound 10 µM, first compound 10 µM
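Note: spheroids exposed to compounds for seven days.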
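Throughout, for viability, T/C: 100% = DMSO vehicle control viability.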

## CC(C)(O)C1CCC(Nc2ccc3ncc(-c4cccc(C(F)(F)F)c4)n3n2)CC1 (centres undefined) + CN(C)c1ccc(Nc2c3ccc(NC(=O)CCN4CCCC4)cc3nc3cc(NC(=O)CCN4CCCC4)ccc23)cc1
Second compound 0.0316 µM
  IC50: > 10 µM
Second compound 0.1 µM
  IC50: > 10 µM
Second compound 0.316 µM
  IC50: > 10 µM
Second compound 1 µM
  IC50: > 10 µM
Second compound 3.16 µM
  IC50: > 10 µM
Second compound 10 µM
  IC50: > 10 µM
[1]
  viability, T/C: 78.5%
[2]
  viability, T/C: 92.8%
[3]
  viability, T/C: 99.9%
[4]
  viability, T/C: 80.2%
[5]
  viability, T/C: 85.1%
[6]
  viability, T/C: 92.3%
[7]
  viability, T/C: 100%
[8]
  viability, T/C: 91%
[9]
  viability, T/C: 88.6%
[10]
  viability, T/C: 87.6%
[11]
  viability, T/C: 76.6%
[12]
  viability, T/C: 81.2%
[13]
  viability, T/C: 108%
[14]
  viability, T/C: 83%
[15]
  viability, T/C: 96.5%
[16]
  viability, T/C: 89.7%
[17]
  viability, T/C: 58%
[18]
  viability, T/C: 63.3%
[19]
  viability, T/C: 69.5%
[20]
  viability, T/C: 96.2%
[21]
  viability, T/C: 79%
[22]
  viability, T/C: 75.2%
[23]
  viability, T/C: 78.9%
[24]
  viability, T/C: 61.2%
[25]
  viability, T/C: 92%
[26]
  viability, T/C: 95%
[27]
  viability, T/C: 90.4%
[28]
  viability, T/C: 94.3%
[29]
  viability, T/C: 85%
[30]
  viability, T/C: 74.4%
[31]
  viability, T/C: 120%
[32]
  viability, T/C: 140%
[33]
  viability, T/C: 103%
[34]
  viability, T/C: 88.8%
[35]
  viability, T/C: 78.3%
[36]
  viability, T/C: 55%

## CC1COCCN1c1cc(C2(O)CC3CCC(C2)O3)c2cnn(-c3ccn[nH]3)c2n1 (centres undefined) + Cc1cnc(CNC(=O)c2c(=O)c3ccc(N4CCCN(C)CC4)nc3n3c2sc2ccccc23)cn1
Second compound 0.0316 µM
  IC50: 0.214 µM
Second compound 0.1 µM
  IC50: 0.0861 µM
Second compound 0.316 µM
  IC50: < 0.0316 µM
Second compound 1 µM
  IC50: < 0.0316 µM
Second compound 3.16 µM
  IC50: < 0.0316 µM
Second compound 10 µM
  IC50: < 0.0316 µM
[1]
  viability, T/C: 79.9%
[2]
  viability, T/C: 64.3%
[3]
  viability, T/C: 40.1%
[4]
  viability, T/C: 32.2%
[5]
  viability, T/C: 28.6%
[6]
  viability, T/C: 18.2%
[7]
  viability, T/C: 68.8%
[8]
  viability, T/C: 43.1%
[9]
  viability, T/C: 40.9%
[10]
  viability, T/C: 21%
[11]
  viability, T/C: 26.6%
[12]
  viability, T/C: 16.5%
[13]
  viability, T/C: 47.4%
[14]
  viability, T/C: 46.2%
[15]
  viability, T/C: 37.1%
[16]
  viability, T/C: 23.1%
[17]
  viability, T/C: 22.1%
[18]
  viability, T/C: 12.5%
[19]
  viability, T/C: 46.2%
[20]
  viability, T/C: 43.1%
[21]
  viability, T/C: 50.8%
[22]
  viability, T/C: 34.2%
[23]
  viability, T/C: 23.3%
[24]
  viability, T/C: 4.13%
[25]
  viability, T/C: 44.8%
[26]
  viability, T/C: 44.2%
[27]
  viability, T/C: 45.2%
[28]
  viability, T/C: 29.4%
[29]
  viability, T/C: 3.29%
[30]
  viability, T/C: 0.13%
[31]
  viability, T/C: 45.5%
[32]
  viability, T/C: 37.9%
[33]
  viability, T/C: 31.4%
[34]
  viability, T/C: 14.6%
[35]
  viability, T/C: 0.21%
[36]
  viability, T/C: 0.2%
